# System: patients with chronic low back pain (LBP) and Modic changes on MRI
# Experiment: Double-blinded, randomized, placebo-controlled clinical trial of a single intravenous infusion of 5 mg zoledronic acid
# Assay type: in vivo, human
# Details: for Intensity of leg pain, mean (SD) original value / Intensity of LBP, mean (SD) original value / Intensity of LBP, mean (SD) change: 10-cm VAS; for Fingers-to-floor, between-group difference, adjusted (ANCOVA) / Fingers-to-floor, between-group difference, unadjusted / Intensity of LBP, between-group difference, adjusted analysis (ANCOVA, baseline value) / Intensity of LBP, between-group difference, unadjusted analysis / Intensity of leg pain, between-group difference, adjusted (ANCOVA) / Intensity of leg pain, between-group difference, unadjusted / Oswestry disability index, between-group difference, adjusted (ANCOVA) / Oswestry disability index, between-group difference, unadjusted / RAND-36 mental component, between-group difference (95% CI), adjusted (ANCOVA) / RAND-36 mental component, between-group difference (95% CI), unadjusted / RAND-36 physical component, between-group difference (95% CI), adjusted (ANCOVA) / RAND-36 physical component, between-group difference (95% CI), unadjusted / Sidebending to left, between-group difference, adjusted (ANCOVA) / Sidebending to left, between-group difference, unadjusted / Sidebending to right, between-group difference, adjusted (ANCOVA) / Sidebending to right, between-group difference, unadjusted / Total RAND-36, between-group difference (95% CI), adjusted (ANCOVA) / Total RAND-36, between-group difference (95% CI), unadjusted: ZA vs placebo
# Procedure: A study was performed to evaluate the efficacy of a single intravenous infusion of 5 mg zoledronic acid in comparison with intravenous placebo infusion among patients with chronic low back pain (LBP) and Modic changes on MRI. This study was a double-blinded, randomized, placebo-controlled clinical trial in patients with low back pain (LBP).
# Patients were excluded from the study if they had renal impairment with reduced creatinine clearance defined as an estimated glomerular filtration rate (eGFR) below 40 ml/min, hypocalcemia, known hypersensitivity to zoledronic acid or other bisphosphonates or ingredients of the infusion product, the presence of red flags, nerve root entrapment or willingness for early retirement. Premenopausal women of childbearing potential were also excluded. Blood samples were taken prior to the infusion to assess the serum concentration of calcium and creatinine. The clinical examination included medical history and clinical assessment of lumbar flexibility, tendon signs, and motor and sensory testing.
# After confirmation of eligibility patients were randomized to receive a single intravenous infusion of 5 mg zoledronic acid (n=20) or 100 ml saline as placebo (n=20) over a 15-minute period. Information on use of the concomitant medication and hospital admissions were recorded. Blood samples were taken for the assessment of safety, inflammatory mediators and markers of bone turnover at baseline, at one month and at one year.
# Clinical assessments were performed at 14 days before enrollment (screening visit), and at follow-up visits at one month and one year after the infusion. The primary outcome was the change in the intensity of LBP on VAS. Secondary outcomes included leg pain intensity, ODI, health-related quality of life assessed with RAND-36, patient-reported sick leaves and lumbar flexibility. These outcome measures were assessed at baseline and at each follow-up. Lumbar flexibility was evaluated using the fingers-to-floor and trunk side bending measures (in cm). The percentage of patients undergoing a 20% relative improvement, the proportion of patients reaching a VAS score of 40 mm or less using 100 mm scale in the primary outcome, and patient acceptable symptom state (PASS) were also assessed. Pain medication use was inquired about during the follow-up visits.
smiles,measurement,setting,value
"O=P(O)(O)C(O)(Cn1ccnc1)P(=O)(O)O [ZA, zoledronic acid]","Fingers-to-floor, mean (SD) original value",1 mo.,17 (17) cm
same,"Oswestry disability index, mean (SD) original value",1 mo.,24 (10) %
same,"RAND-36 mental component, mean (SD) original value",1 mo.,50 (9)
same,"RAND-36 physical component, mean (SD) original value",1 mo.,52 (9)
same,"Sidebending to left, mean (SD) original value",1 mo.,16.1 (5.3) cm
same,"Sidebending to right, mean (SD) original value",1 mo.,15.7 (5.9) cm
same,"Total RAND-36, mean (SD) original value",1 mo.,51 (8)
same,"Intensity of leg pain, mean (SD) original value",1 mo.,2.0 (2.3)
same,"Intensity of LBP, mean (SD) original value",1 mo. after 5 mg IV,4.3 (2.3)
same,"Intensity of leg pain, mean (SD) original value",12 mos.,2.1 (2.8)
same,"Intensity of LBP, mean (SD) original value",12 mos. after 5 mg IV,3.8 (2.5)
same,"Intensity of leg pain, mean (SD) original value",baseline,3.0 (3.1)
same,"Intensity of LBP, mean (SD) change",baseline to 1 mo.,−2.2 (2.7)
same,"Intensity of LBP, mean (SD) change",baseline to 12 mos.,−2.8 (2.9)
same,"Intensity of LBP, mean (SD) original value","baseline, n=20",6.6 (1.4)
same,"Fingers-to-floor, mean (SD) original value",12 mos.,16 (16) cm
same,"Oswestry disability index, mean (SD) original value",12 mos.,25 (13) %
same,"RAND-36 mental component, mean (SD) original value",12 mos.,51 (9)
same,"RAND-36 physical component, mean (SD) original value",12 mos.,52 (8)
same,"Sidebending to left, mean (SD) original value",12 mos.,16.2 (6.7) cm
same,"Sidebending to right, mean (SD) original value",12 mos.,15.7 (5.6) cm
same,"Total RAND-36, mean (SD) original value",12 mos.,51 (8)
same,"Fingers-to-floor, between-group difference, adjusted (ANCOVA)",1 mo.,3.6 cm
same,"Fingers-to-floor, between-group difference, unadjusted",1 mo.,5.0 cm
same,"Intensity of LBP, between-group difference, adjusted analysis (ANCOVA, baseline value)",1 mo.,1.4
same,"Intensity of LBP, between-group difference, unadjusted analysis",1 mo.,1.3
same,"Intensity of leg pain, between-group difference, adjusted (ANCOVA)",1 mo.,0.8
same,"Intensity of leg pain, between-group difference, unadjusted",1 mo.,0.8
same,"Oswestry disability index, between-group difference, adjusted (ANCOVA)",1 mo.,6.0%
same,"Oswestry disability index, between-group difference, unadjusted",1 mo.,4.3%
same,"RAND-36 mental component, between-group difference (95% CI), adjusted (ANCOVA)",1 mo.,1.6 (−2 to 5)
same,"RAND-36 mental component, between-group difference (95% CI), unadjusted",1 mo.,2.0 (−2 to 6)
same,"RAND-36 physical component, between-group difference (95% CI), adjusted (ANCOVA)",1 mo.,1.3 (−3 to 6)
same,"RAND-36 physical component, between-group difference (95% CI), unadjusted",1 mo.,0.3 (−4 to 5)
same,"Sidebending to left, between-group difference, adjusted (ANCOVA)",1 mo.,−1.7 cm
same,"Sidebending to left, between-group difference, unadjusted",1 mo.,−1.5 cm
same,"Sidebending to right, between-group difference, adjusted (ANCOVA)",1 mo.,−2.0 cm
same,"Sidebending to right, between-group difference, unadjusted",1 mo.,−2.0 cm
same,"Total RAND-36, between-group difference (95% CI), adjusted (ANCOVA)",1 mo.,1.3 (−3 to 5)
same,"Total RAND-36, between-group difference (95% CI), unadjusted",1 mo.,1.2 (−3 to 5)
same,"Fingers-to-floor, between-group difference, adjusted (ANCOVA)",12 mos.,5.3 cm
same,"Fingers-to-floor, between-group difference, unadjusted",12 mos.,7.1 cm
same,"Intensity of LBP, between-group difference, adjusted analysis (ANCOVA, baseline value)",12 mos.,0.7
same,"Intensity of LBP, between-group difference, unadjusted analysis",12 mos.,0.6
same,"Intensity of leg pain, between-group difference, adjusted (ANCOVA)",12 mos.,0.5
same,"Intensity of leg pain, between-group difference, unadjusted",12 mos.,0.6
same,"Oswestry disability index, between-group difference, adjusted (ANCOVA)",12 mos.,5.1%
same,"Oswestry disability index, between-group difference, unadjusted",12 mos.,3.1%
same,"RAND-36 mental component, between-group difference (95% CI), adjusted (ANCOVA)",12 mos.,2.7 (−2 to 7)
same,"RAND-36 mental component, between-group difference (95% CI), unadjusted",12 mos.,3.5 (−2 to 9)
same,"RAND-36 physical component, between-group difference (95% CI), adjusted (ANCOVA)",12 mos.,2.1 (−3 to 7)
same,"RAND-36 physical component, between-group difference (95% CI), unadjusted",12 mos.,0.7 (−5 to 6)
same,"Sidebending to left, between-group difference, adjusted (ANCOVA)",12 mos.,−1.0 cm
same,"Sidebending to left, between-group difference, unadjusted",12 mos.,−0.7 cm
same,"Sidebending to right, between-group difference, adjusted (ANCOVA)",12 mos.,−1.7 cm
same,"Sidebending to right, between-group difference, unadjusted",12 mos.,−1.6 cm
same,"Total RAND-36, between-group difference (95% CI), adjusted (ANCOVA)",12 mos.,2.2 (−2 to 7)
same,"Total RAND-36, between-group difference (95% CI), unadjusted",12 mos.,2.1 (−3 to 7)
same,Patients using NSAIDs (self-reported),"at one year, placebo 60%",20%
same,"Fingers-to-floor, mean (SD) original value",baseline,23 (19) cm
same,"Oswestry disability index, mean (SD) original value",baseline,30 (11) %
same,"RAND-36 mental component, mean (SD) original value",baseline,49 (9)
same,"RAND-36 physical component, mean (SD) original value",baseline,52 (8)
same,"Sidebending to left, mean (SD) original value",baseline,15.0 (5.4) cm
same,"Sidebending to right, mean (SD) original value",baseline,14.1 (4.9) cm
same,"Total RAND-36, mean (SD) original value",baseline,50 (8)
same,"Fingers-to-floor, mean (SD) change",baseline to 1 mo.,−5.1 (20) cm
same,"Intensity of leg pain, mean (SD) change",baseline to 1 mo.,−0.6 (2.4)
same,"Oswestry disability index, mean (SD) change",baseline to 1 mo.,−5.9 (11) %
same,"RAND-36 mental component, mean change",baseline to 1 mo.,1.0
same,"RAND-36 physical component, mean change",baseline to 1 mo.,0.1
same,"Sidebending to left, mean (SD) change",baseline to 1 mo.,1.1 (3.0) cm
same,"Sidebending to right, mean (SD) change",baseline to 1 mo.,1.5 (4.7) cm
same,"Total RAND-36, mean change",baseline to 1 mo.,0.6
same,"Fingers-to-floor, mean (SD) change",baseline to 12 mos.,−6.3 (23) cm
same,"Intensity of leg pain, mean (SD) change",baseline to 12 mos.,−0.9 (3.4)
same,"Oswestry disability index, mean (SD) change",baseline to 12 mos.,−5.0 (15) %
same,"RAND-36 mental component, mean change",baseline to 12 mos.,1.8
same,"RAND-36 physical component, mean change",baseline to 12 mos.,0.3
same,"Sidebending to left, mean (SD) change",baseline to 12 mos.,1.2 (5.3) cm
same,"Sidebending to right, mean (SD) change",baseline to 12 mos.,1.6 (4.8) cm
same,"Total RAND-36, mean change",baseline to 12 mos.,1.0
same,Proportion of patients reaching patient acceptable symptom state (PASS),"one month, placebo 20% (p=0.096)",50%
same,Proportion of patients with at least 20% improvement in intensity of LBP,"one month, placebo 25% (p=0.105)",55%
same,"Pain reduction, VAS change from baseline",patients with Baseline VAS <6,−0.1 cm
same,"Pain reduction, VAS change from baseline",patients with Baseline VAS ≥6 and <7,−2.3 cm
same,"Pain reduction, VAS change from baseline",patients with Baseline VAS ≥7,−3.4 cm
same,Mean reduction in pain from baseline,patients with baseline pain intensity <6,0.1
same,Mean reduction in pain from baseline,patients with baseline pain intensity ≥7,3.4
